In ChEMBL document CHEMBL3817833, “Synthesis and evaluation of antitubercular activity of fluorinated 5-aryl-4-(hetero)aryl substituted pyrimidines” (Bioorg Med Chem, 2016) one finds MIC data, which are given here for 34 compounds.

Each structure is given as a SMILES string. Values after ≈ are worked out from the molar mass of the structure shown.

This test concerns Mycobacterium tuberculosis. Put plainly: Antimycobacterial activity against rifampin and isoniazid resistant-Mycobacterium tuberculosis Beijing harboring Ser 531 to Leu 315 and Ser to Thr in rpoB and katG genes mutation after 24 hrs by microbroth dilution method. The test is classed as functional. On the technique in general: Broth dilution looks for growth in wells or tubes with falling amounts of substance.
With `FC(F)(F)c1ccccc1-c1cncnc1-c1ccco1`, the MIC (commonly the least concentration at which growth counts as inhibited) came to 43.07 µM (≈ 12.5 µg/mL).

In turn, `FC(F)(F)c1cccc(-c2cncnc2-c2cccs2)c1` registered a minimal inhibitory concentration (MIC) of 4.9 µM (≈ 1.5 µg/mL).

In the case of `Fc1cc(F)cc(-c2cncnc2)c1`, the MIC was found to be 3.64 µM (≈ 0.699 µg/mL).

`Fc1ccc(-c2cncnc2-c2ccco2)cc1` gave an MIC of 52.03 µM (≈ 12.5 µg/mL).

Regarding `Fc1cc(F)cc(-c2cncnc2-c2ccco2)c1`, the MIC worked out at 24.01 µM (≈ 6.2 µg/mL).

`c1ccc(-c2cncnc2)cc1` registered a minimal inhibitory concentration (MIC) of 80.03 µM (≈ 12.5 µg/mL).

As for `Fc1cccc(-c2cncnc2)c1`, the MIC is 35.88 µM (≈ 6.25 µg/mL).

Compound `Fc1cccc(-c2cncnc2-c2ccco2)c1` registered an MIC of 6.24 µM (≈ 1.5 µg/mL).

Compound `FC(F)(F)c1ccc(-c2cncnc2-c2cccs2)cc1` returned a minimal inhibitory concentration (MIC) of 40.81 µM (≈ 12.5 µg/mL).

In the case of `c1ccc(-c2cncnc2-c2cccs2)cc1`, the minimal inhibitory concentration (MIC) came to 26.02 µM (≈ 6.2 µg/mL).

As for `Fc1ccc(-c2cncnc2-c2cccs2)c(F)c1`, the MIC stood at 45.57 µM (≈ 12.5 µg/mL).

For the compound `c1ccc(-c2cncnc2-c2ccco2)cc1`, the minimal inhibitory concentration (MIC) was found to be 1.57 µM (≈ 0.349 µg/mL).

Regarding `FC(F)(F)c1cc(-c2cncnc2-c2ccco2)cc(C(F)(F)F)c1`, the MIC turned out to be 8.65 µM (≈ 3.1 µg/mL).

`FC(F)(F)c1cc(-c2cncnc2-c2cccs2)cc(C(F)(F)F)c1` had an MIC of 33.39 µM (≈ 12.5 µg/mL).

For the compound `Fc1cc(F)cc(-c2cncnc2-c2cccs2)c1`, the MIC worked out at 45.57 µM (≈ 12.5 µg/mL).

`Fc1ccccc1-c1cncnc1` had a minimal inhibitory concentration (MIC) of 71.76 µM (≈ 12.5 µg/mL).

In turn, `FC(F)(F)c1ccc(-c2cncnc2-c2ccco2)c(C(F)(F)F)c1` showed an MIC of 1.95 µM (≈ 0.699 µg/mL).

In the case of `FC(F)(F)c1ccc(-c2cncnc2-c2cccs2)c(C(F)(F)F)c1`, the minimal inhibitory concentration (MIC) was found to be 16.56 µM (≈ 6.2 µg/mL).

In turn, `FC(F)(F)c1ccccc1-c1cncnc1` had an MIC of 27.66 µM (≈ 6.2 µg/mL).

As for `Fc1ccccc1-c1cncnc1-c1cccs1`, the MIC stood at 12.5 µM (≈ 3.2 µg/mL).

Take `Fc1ccc(-c2cncnc2)c(F)c1`: the minimal inhibitory concentration (MIC) was 16.13 µM (≈ 3.1 µg/mL).

In the case of `FC(F)(F)c1ccccc1-c1cncnc1-c1cccs1`, the minimum inhibitory concentration (MIC) is 20.24 µM (≈ 6.2 µg/mL).

`FC(F)(F)c1cc(-c2cncnc2)cc(C(F)(F)F)c1` had an MIC of 5.13 µM (≈ 1.5 µg/mL).

The compound `Fc1ccc(-c2cncnc2-c2cccs2)cc1` came in with a minimal inhibitory concentration (MIC) of 12.5 µM (≈ 3.2 µg/mL).

For `Fc1cccc(-c2cncnc2-c2cccs2)c1`, the minimum inhibitory concentration (MIC) stood at 12.5 µM (≈ 3.2 µg/mL).

Take `Fc1ccc(-c2cncnc2)cc1`: the MIC was found to be 71.76 µM (≈ 12.5 µg/mL).

In turn, `FC(F)(F)c1cccc(-c2cncnc2)c1` registered a minimal inhibitory concentration (MIC) of 55.76 µM (≈ 12.5 µg/mL).

In turn, `Fc1ccccc1-c1cncnc1-c1ccco1` showed an MIC of 52.03 µM (≈ 12.5 µg/mL).

For `Fc1ccc(-c2cncnc2-c2ccco2)c(F)c1`, the MIC turned out to be 48.41 µM (≈ 12.5 µg/mL).

For the compound `FC(F)(F)c1ccc(-c2cncnc2)c(C(F)(F)F)c1`, the MIC stood at 42.78 µM (≈ 12.5 µg/mL).

Compound `CC1COc2c(N3CCN(C)CC3)c(F)cc3c(=O)c(C(=O)O)cn1c23` (centres undefined) [OFLOXACIN] came in with an MIC of 0.28 µM (≈ 0.101 µg/mL).

In turn, `FC(F)(F)c1ccc(-c2cncnc2)cc1` showed a minimal inhibitory concentration (MIC) of 55.76 µM (≈ 12.5 µg/mL).

`FC(F)(F)c1ccc(-c2cncnc2-c2ccco2)cc1` yielded an MIC of 43.07 µM (≈ 12.5 µg/mL).

For the compound `FC(F)(F)c1cccc(-c2cncnc2-c2ccco2)c1`, the minimal inhibitory concentration (MIC) is 43.07 µM (≈ 12.5 µg/mL).
